Measurements taken from ChEMBL document CHEMBL1156794, “Synthesis and antimicrobial evaluation of amphiphilic neamine derivatives” (J Med Chem, 2010).
Values after ≈ are worked out from the molar mass of the structure shown.

Tests used:
[1] = system: Citrobacter amalonaticus; test: Antibacterial activity against R-methylase expressing Citrobacter amalonaticus 06AB0010 after 24 hrs by geometric microdilution method; type: functional; conditions: 06AB0010, 24 h
[2] = system: Pseudomonas aeruginosa; test: Antibacterial activity against MexCD expressing Pseudomonas aeruginosa PA01 after 24 hrs by geometric microdilution method; type: functional; conditions: PA01, 24 h
[3] = system: Pseudomonas aeruginosa; test: Antibacterial activity against MexXY expressing Pseudomonas aeruginosa PA22 after 24 hrs by geometric microdilution method; type: functional; conditions: PA22, 24 h
[4] = system: Escherichia coli; test: Antibacterial activity against R-methylase expressing Escherichia coli 06AB003 after 24 hrs by geometric microdilution method; type: functional; conditions: 06AB003, 24 h
[5] = system: Pseudomonas aeruginosa; test: Antibacterial activity against TriABC expressing MexAB, MexCD, MexEF, MexXY deleted Pseudomonas aeruginosa PA405 after 24 hrs by geometric microdilution method; type: functional; conditions: PA405, 24 h
[6] = system: Pseudomonas aeruginosa; test: Antibacterial activity against MexXY expressing Pseudomonas aeruginosa PT629 after 24 hrs by geometric microdilution method; type: functional; conditions: PT629, 24 h
[7] = system: Acinetobacter lwoffii; test: Antibacterial activity against […] expressing Acinetobacter lwoffii AI.88-483 after 24 hrs by geometric microdilution method; type: functional; conditions: AI.88-483, 24 h
[8] = system: Pseudomonas aeruginosa; test: Antibacterial activity against MexAB expressing Pseudomonas aeruginosa PA21 after 24 hrs by geometric microdilution method; type: functional; conditions: PA21, 24 h
[9] = molecular target: Nucleic Acid; test: Binding affinity to bacterial rRNA A site at 200 uM by isothermal titration calorimetry; type: nucleic-acid assay
[10] = system: Klebsiella pneumoniae; test: Antibacterial activity against Klebsiella pneumoniae ATCC 700603 after 24 hrs by geometric microdilution method; type: functional; conditions: ATCC 700603, 24 h
[11] = system: Pseudomonas aeruginosa; test: Antibacterial activity against Pseudomonas aeruginosa ATCC 27853 after 24 hrs by geometric microdilution method; type: functional; conditions: ATCC 27853, 24 h
[12] = system: Escherichia coli; test: Antibacterial activity against AAC6'-2b expressing Escherichia coli PAZ505H8101 after 24 hrs by geometric microdilution method; type: functional; conditions: PAZ505H8101, 24 h
[13] = system: Klebsiella aerogenes; test: Antibacterial activity against R-methylase expressing Enterobacter aerogenes 06AB008 after 24 hrs by geometric microdilution method; type: functional; conditions: 06AB008, 24 h
[14] = system: Pseudomonas aeruginosa; test: Antibacterial activity against MexAB, MexCD, MexEF, MexXY, TriABC deleted Pseudomonas aeruginosa PA406 after 24 hrs by geometric microdilution method; type: functional; conditions: PA406, 24 h
[15] = system: Escherichia coli; test: Antibacterial activity against ANT2'-2a expressing Escherichia coli L58058.1 after 24 hrs by geometric microdilution method; type: functional; conditions: L58058.1, 24 h
[16] = system: Pseudomonas aeruginosa; test: Inhibition of protein synthesis in Pseudomonas aeruginosa ATCC 27853 assessed as decrease in incorporation of L-[4,5-3H]leucine at 10 times MIC by liquid scintillation counter relative to control; type: functional
[17] = system: Pseudomonas aeruginosa; test: Antibacterial activity against Pseudomonas aeruginosa PAO1 after 24 hrs by geometric microdilution method; type: functional; conditions: PAO1, 24 h
[18] = system: Pseudomonas aeruginosa; test: Antibacterial activity against MexEF expressing Pseudomonas aeruginosa PA03 after 24 hrs by geometric microdilution method; type: functional; conditions: PA03, 24 h
[19] = system: Pseudomonas aeruginosa; test: Antibacterial activity against AAC6'-2a expressing Pseudomonas aeruginosa F03 after 24 hrs by geometric microdilution method; type: functional; conditions: F03, 24 h
[20] = system: Staphylococcus aureus; test: Antibacterial activity against NorA pump expressing Staphylococcus aureus after 24 hrs by geometric microdilution method; type: functional
[21] = system: Escherichia coli; test: microbe, parasite or virus in culture; conditions: ATCC 25922, 24 h
Description: Antibacterial activity against Escherichia coli ATCC 25922 after 24 hrs by geometric microdilution method

[22] = system: Acinetobacter lwoffii; test: microbe, parasite or virus in culture; conditions: ATCC 17925, 24 h
Description: Antibacterial activity against Acinetobacter lwoffii ATCC 17925 after 24 hrs by geometric microdilution method

[23] = system: Staphylococcus aureus; test: Antibacterial activity against aminoglycoside-6'-N-acetyltransferase/2''-O-phosphoryltransferase expressing Staphylococcus aureus after 24 hrs by geometric microdilution method; type: functional
[24] = system: Staphylococcus aureus; test: Antibacterial activity against vancomycin-resistant Staphylococcus aureus VRS-2 after 24 hrs by geometric microdilution method; type: functional; conditions: VRS-2, 24 h
[25] = system: Staphylococcus aureus; test: Antibacterial activity against aminoglycoside-3'-O-phosphoryltransferase expressing Staphylococcus aureus after 24 hrs by geometric microdilution method; type: functional
[26] = system: Staphylococcus aureus; test: Antibacterial activity against aminoglycoside-4'-O-phosphoryltransferase expressing Staphylococcus aureus after 24 hrs by geometric microdilution method; type: functional
[27] = system: Staphylococcus aureus; test: Antibacterial activity against methicillin-resistant Staphylococcus aureus ATCC 33592 clinical isolate after 24 hrs by geometric microdilution method; type: functional; conditions: ATCC 33592, 24 h
[28] = system: Pseudomonas aeruginosa; test: Inhibition of protein synthesis in Pseudomonas aeruginosa ATCC 27853 assessed as decrease in incorporation of L-[4,5-3H]leucine at MIC by liquid scintillation counter relative to control; type: functional
[29] = system: Staphylococcus aureus; test: Antibacterial activity against Staphylococcus aureus ATCC 25923 after 24 hrs by geometric microdilution method; type: functional; conditions: ATCC 25923, 24 h
[30] = system: Staphylococcus aureus; test: Antibacterial activity against MsrA pump expressing Staphylococcus aureus after 24 hrs by geometric microdilution method; type: functional
[31] = system: Pseudomonas aeruginosa; test: Inhibition of protein synthesis in Pseudomonas aeruginosa ATCC 27853 assessed as decrease in incorporation of L-[4,5-3H]leucine at 5 times MIC by liquid scintillation counter relative to control; type: functional

NC[C@H]1O[C@H](O[C@H]2[C@H](O)[C@@H](OCc3ccc4ccccc4c3)[C@H](N)C[C@@H]2N)[C@H](N)[C@@H](OCc2ccc3ccccc3c2)[C@@H]1OCc1ccc2ccccc2c1
MIC [1]: 4 µg/mL (≈ 5.38 µM) | MIC [2]: 4 µg/mL (≈ 5.38 µM) | MIC [3]: 4 µg/mL (≈ 5.38 µM) | MIC [4]: 4 µg/mL (≈ 5.38 µM) | MIC [5]: 4 µg/mL (≈ 5.38 µM) | MIC [6]: 4 µg/mL (≈ 5.38 µM) | MIC [7]: 32 µg/mL (≈ 43.1 µM) | MIC [8]: 4 µg/mL (≈ 5.38 µM) | Kd [9]: 10 µM | MIC [10]: 16 µg/mL (≈ 21.5 µM) | MIC [11]: 8 µg/mL (≈ 10.8 µM) | MIC [12]: 4 µg/mL (≈ 5.38 µM) | MIC [13]: 4 µg/mL (≈ 5.38 µM) | MIC [14]: 4 µg/mL (≈ 5.38 µM) | MIC [15]: 4 µg/mL (≈ 5.38 µM) | inhibition (INH) [16]: 60% | MIC [17]: 8 µg/mL (≈ 10.8 µM) | MIC [18]: 4 µg/mL (≈ 5.38 µM) | MIC [19]: 8 µg/mL (≈ 10.8 µM)

NC[C@@H]1O[C@H](O[C@H]2[C@@H](O)[C@H](O[C@@H]3[C@@H](O)[C@H](N)C[C@H](N)[C@H]3O[C@H]3O[C@H](CN)[C@@H](O)[C@H](O)[C@H]3N)O[C@@H]2CO)[C@H](N)[C@@H](O)[C@@H]1O [FRAMYCETIN]
MIC [20]: 1 µg/mL (≈ 1.63 µM) | MIC [21]: 2 µg/mL (≈ 3.25 µM) | MIC [2]: 8 µg/mL (≈ 13 µM) | MIC [3]: 32 µg/mL (≈ 52.1 µM) | MIC [5]: 2 µg/mL (≈ 3.25 µM) | MIC [6]: 32 µg/mL (≈ 52.1 µM) | MIC [22]: 0.5 µg/mL (≈ 0.813 µM) | MIC [7]: > 128 µg/mL | MIC [23]: 1 µg/mL (≈ 1.63 µM) | MIC [8]: 4 µg/mL (≈ 6.51 µM) | Kd [9]: 1.55 µM | MIC [24]: 128 µg/mL (≈ 208 µM) | MIC [25]: > 128 µg/mL | MIC [10]: 16 µg/mL (≈ 26 µM) | MIC [26]: 32 µg/mL (≈ 52.1 µM) | MIC [11]: 64 µg/mL (≈ 104 µM) | MIC [12]: 4 µg/mL (≈ 6.51 µM) | MIC [27]: > 128 µg/mL | MIC [14]: 4 µg/mL (≈ 6.51 µM) | inhibition (INH) [28]: 40% | MIC [15]: 32 µg/mL (≈ 52.1 µM) | inhibition (INH) [16]: 40% | MIC [17]: 4 µg/mL (≈ 6.51 µM) | MIC [29]: 2 µg/mL (≈ 3.25 µM) | MIC [18]: 4 µg/mL (≈ 6.51 µM) | MIC [19]: 128 µg/mL (≈ 208 µM) | MIC [30]: 2 µg/mL (≈ 3.25 µM)

C[C@H]1[C@H](NC(=O)/C(=N\OC(C)(C)C(=O)O)c2csc(N)n2)C(=O)N1S(=O)(=O)O [AZTREONAM]
inhibition (INH) [31]: 30% | inhibition (INH) [16]: 95%

NC[C@H]1O[C@H](O[C@H]2[C@H](O)[C@@H](O[C@H]3O[C@H](CO)[C@@H](O)[C@H](N)[C@H]3O)[C@H](N)C[C@@H]2N)[C@H](N)C[C@@H]1O [TOBRAMYCIN]
MIC [1]: > 128 µg/mL | MIC [21]: 0.5 µg/mL (≈ 1.07 µM) | MIC [2]: 0.5 µg/mL (≈ 1.07 µM) | MIC [3]: 1 µg/mL (≈ 2.14 µM) | MIC [4]: > 128 µg/mL | MIC [5]: < 0.25 µg/mL | MIC [6]: 1 µg/mL (≈ 2.14 µM) | MIC [22]: 0.5 µg/mL (≈ 1.07 µM) | MIC [7]: 1 µg/mL (≈ 2.14 µM) | MIC [8]: 0.5 µg/mL (≈ 1.07 µM) | MIC [10]: 4 µg/mL (≈ 8.56 µM) | MIC [11]: 0.5 µg/mL (≈ 1.07 µM) | MIC [12]: 32 µg/mL (≈ 68.4 µM) | MIC [13]: > 128 µg/mL | MIC [14]: < 0.25 µg/mL | MIC [15]: 64 µg/mL (≈ 137 µM) | MIC [17]: 0.5 µg/mL (≈ 1.07 µM) | MIC [18]: < 0.25 µg/mL | MIC [19]: 128 µg/mL (≈ 274 µM)

NCC[C@H](O)C(=O)N[C@@H]1C[C@H](N)[C@@H](O[C@H]2O[C@H](CN)[C@@H](O)[C@H](O)[C@H]2O)[C@H](O)[C@H]1O[C@H]1O[C@H](CO)[C@@H](O)[C@H](N)[C@H]1O [AMIKACIN]
MIC [1]: > 128 µg/mL | MIC [21]: 4 µg/mL (≈ 6.83 µM) | MIC [2]: 2 µg/mL (≈ 3.42 µM) | MIC [3]: 8 µg/mL (≈ 13.7 µM) | MIC [4]: > 128 µg/mL | MIC [5]: 0.5 µg/mL (≈ 0.854 µM) | MIC [6]: 8 µg/mL (≈ 13.7 µM) | MIC [22]: 0.5 µg/mL (≈ 0.854 µM) | MIC [7]: > 128 µg/mL | MIC [8]: 2 µg/mL (≈ 3.42 µM) | MIC [10]: 0.5 µg/mL (≈ 0.854 µM) | MIC [11]: 2 µg/mL (≈ 3.42 µM) | MIC [12]: 32 µg/mL (≈ 54.6 µM) | MIC [13]: > 128 µg/mL | MIC [14]: 1 µg/mL (≈ 1.71 µM) | MIC [15]: 2 µg/mL (≈ 3.42 µM) | MIC [17]: 2 µg/mL (≈ 3.42 µM) | MIC [18]: 2 µg/mL (≈ 3.42 µM) | MIC [19]: 4 µg/mL (≈ 6.83 µM)
